Data as given in patent US20240398737A1, “FUNCTIONALIZED LONG-CHAIN HYDROCARBON MONO- AND DI-CARBOXYLIC ACIDS AND DERIVATIVES THEREOF, AND THEIR USE FOR THE PREVENTION OR TREATMENT OF DISEASE” (Espervita Therapeutics, Inc., priority 2021, published 2024).
Where “and” joins values, the source holds several entries; their conditions need not be identical. Identical values can stand only once. Like-named read-outs stand apart in the source and are kept apart here.

Experiments:
[1] = target: ERK7/MAPK15 (Homo sapiens (Human), UniProt Q8TD08); assay: Wild type kinase screen: ERK7/MAPK15; assay type: biochemical; conditions: compound at 10 μM, 10 μM ATP, Data 1 and Data 2 duplicates
[2] = system: hepatic de novo lipogenesis; assay: Hepatic de novo lipogenesis (14C-glucose) in a murine model of NASH; assay type: in vivo, mouse; conditions: for Hepatic de novo lipogenesis, Mean (DPM/gram liver tissue/hour): high fat/high fructose fed mice
Procedure: Experimental Protocol. FIG. 22 summarizes the study protocol. Mice were dosed daily for 7 days with a single dose of either Compound I-32 or Compound I-1 at a dose of 10 mg/kg, 30 mg/kg or 60 mg/kg. On the 8th day of the experiment mice receive final dose of Compound I-32 or Compound I-1, followed one hour later by an I.P. bolus of 14—C Glucose.
C57BL6J (8 weeks of age) were obtained for the Jackson Laboratory and fed a normal chow diet upon arrival. At ˜10 weeks of age, mice were given a diet containing high fat and high fructose (Rodent Diet with 40 kcal % Fat (Mostly Palm Oil), 20 kcal % fructose, and 0.02% cholesterol, obtained from Research Diets, Product Code: D19101102) and housed at thermoneutral conditions (26-29° C.). After 7-8 months the mice were divided into 7 groups and received a single daily dose via gavage of either vehicle (1.5% CMC and 0.2% Tween-20) or vehicle containing Compound I-32 or Compound I-1 at a concentration of 10 mg/kg, 30 mg/kg, or 60 mg/kg for 7 days. On the morning of day 8, animals received a final dose and after 1 hour ^14C-glucose (PerkinElmer) was administered at a concentration of 12 μCi per mouse in a volume of 0.1 ml in 0.9% saline I.P. One hour after ^14C-glucose was given, animals were anesthetized by I.P. injection of Ketamine/Xylazine (150 mg/12.4 mg/kg, respectively). Blood was drawn through cardiac puncture; the liver was removed, and a sample was from the left lobe and frozen in liquid nitrogen. Liver tissue was chipped on dry-ice and the weight of the chip weight recorded (30-50 mg of tissue). Liver tissue was homogenized in 1 ml of 2:1 chloroform: methanol using a bead homogenizer at 5000 rpm for 2×12 seconds. Samples were incubated with gentle shaking at 4° C. for 2 hours, vortexed for 2×12 seconds, and then centrifuge at 7000 rpm for 10 minutes at 4° C. The supernatant was transferred to a 1.5 ml Eppendorf and 200 μl of 0.9% saline was added. Samples were vortexed for 2×12 seconds and centrifuged at 3000 rpm for 10 minutes at 4° C. 200 μl of the lower organic phase was removed and added to 5 ml of scintillation fluid. The amount radioactivity in the sample was measured by scintillation counting. The number of disintegrations per minute (DPM) were determined over a 5-minute period and normalized to the amount of liver tissue. 5-10 μl of plasma obtained at termination was also counted and lipid/gram tissue counts were normalized to plasma counts. Statistical comparisons were carried out using a one-way ANOVA followed by Dunnett's post hoc test using GraphPad Prism 8 software. A p-value of less than or equal to 0.05 was used as the criterion of significance.

[3] = target: FLT1/VEGFR1 (Homo sapiens (Human), UniProt P17948); assay: Wild type kinase screen: FLT1/VEGFR1; assay type: biochemical; conditions: compound at 10 μM, 10 μM ATP, Data 1 and Data 2 duplicates
[4] = target: Aurora A (Homo sapiens (Human), UniProt O14965); assay: Wild type kinase screen: Aurora A; assay type: biochemical; conditions: compound at 10 μM, 10 μM ATP, Data 1 and Data 2 duplicates
[5] = target: MAPKAPK2 (Homo sapiens (Human), UniProt P49137); assay: Wild type kinase screen: MAPKAPK2; assay type: biochemical; conditions: compound at 10 μM, 10 μM ATP, Data 1 and Data 2 duplicates
[6] = target: c-Kit (Homo sapiens (Human), UniProt P10721); assay: Wild type kinase screen: c-Kit; assay type: biochemical; conditions: compound at 10 μM, 10 μM ATP, Data 1 and Data 2 duplicates
[7] = target: CAMK2g (Homo sapiens (Human), UniProt Q13555); assay: Wild type kinase screen: CAMK2g; assay type: biochemical; conditions: compound at 10 μM, 10 μM ATP, Data 1 and Data 2 duplicates
[8] = target: MLCK/MYLK (Homo sapiens (Human), UniProt Q15746); assay: Wild type kinase screen: MLCK/MYLK; assay type: biochemical; conditions: compound at 10 μM, 10 μM ATP, Data 1 and Data 2 duplicates
[9] = Toxicokinetics in female rats (4-day oral gavage study, Day 1); assay type: in vivo; conditions: female rat plasma; for Dose proportionality of the increases in mean Cmax and AUC0-24: 100 to 300 mg/kg/day; for Cmax / Tmax / AUC(0-t): Wistar Han (RccHan:WIST); for Cmax / Tmax / AUC(0-t) / AUC0-24 (h*ng/mL): Day 1; for AUC(0-t): read-out: AUC0-24
Procedure: Dosing Solutions. The dosing solutions of Compound I-1 or Compound I-32 were prepared as follows: a 60-mg/mL stock solution was prepared for Compound I-1 or Compound I-32 by dissolving Compound I-1 or Compound I-32 in DI water. Two molar equivalents of NaOH was added for every 1 mole of Compound I-1 or Compound I-32 (1.1 μL of 5N NaOH was added for every mg of Compound I-32 or Compound I-1). The pH of the stock solution for Compound I-1 or Compound I-32 was adjusted to achieve a final pH of 8.2 to 8.6. The resultant stock formulations were further diluted with vehicle to achieve the 30 mg/mL concentration. The 30-mg/mL formulations were diluted with control article to achieve the 10-mg/mL concentration. All dilution calculations were based on the nominal concentration of the stock solution. Formulations of Compound I-1 or Compound I-32 were prepared on the day of dosing were stored at room temperature (15 to 30° C.) and used within 8 hours of preparation completion. The control was 1.5% (w/v) carboxymethyl cellulose+0.2% (v/v) Tween 20 in DI water for as Group 1 formulations. The vehicle used for Compound I-1 and Compound I-32 formulations was 3% (w/v) carboxymethyl cellulose+0.4% (v/v) Tween 20 in DI water.
Bioanalytical and Toxicokinetic Analyses. Blood samples (approximately 0.3 mL) were collected from nonfasted toxicokinetic animals via a jugular vein on Day 1 of the dosing phase, as indicated in the following table. Samples were collected predose and approximately 1, 2, 4, and 24 hours postdose.
Blood was collected into tubes containing potassium (K2) EDTA as the anticoagulant. Samples were maintained on chilled cryoracks and were centrifuged within 1 hour of collection. Plasma was harvested into two approximately equal aliquots and stored on dry ice until placed in a freezer, set to maintain −60 to −80° C., until analyzed. Plasma samples were analyzed for Compound I-1 and Compound I-32 content using a generic Tier 1 qualified liquid chromatography-tandem mass spectrometry (LC-MS/MS) method.
In-Life Phase. Animals were dosed once daily for up to 4 days via oral gavage at a volume of 10 mL/kg. Animals in Group 2 and 3 were administered Compound I-1. Animals in Group 4 and 5 were administered Compound I-32. The control article for Group 1 was 1.5% (w/v) carboxymethyl cellulose+0.2% (v/v) Tween 20 in deionized (DI) water. The vehicle used to prepare Compound I-1 and Compound I-32 formulations was 3% (w/v) carboxymethyl cellulose+0.4% (v/v) Tween 20 in DI water.

[10] = 10 mg/kg daily oral gavage for 7 days
[11] = 30 mg/kg daily oral gavage for 7 days
[12] = 60 mg/kg daily oral gavage for 7 days

Sequence of FLT1/VEGFR1 (P17948 27-1338): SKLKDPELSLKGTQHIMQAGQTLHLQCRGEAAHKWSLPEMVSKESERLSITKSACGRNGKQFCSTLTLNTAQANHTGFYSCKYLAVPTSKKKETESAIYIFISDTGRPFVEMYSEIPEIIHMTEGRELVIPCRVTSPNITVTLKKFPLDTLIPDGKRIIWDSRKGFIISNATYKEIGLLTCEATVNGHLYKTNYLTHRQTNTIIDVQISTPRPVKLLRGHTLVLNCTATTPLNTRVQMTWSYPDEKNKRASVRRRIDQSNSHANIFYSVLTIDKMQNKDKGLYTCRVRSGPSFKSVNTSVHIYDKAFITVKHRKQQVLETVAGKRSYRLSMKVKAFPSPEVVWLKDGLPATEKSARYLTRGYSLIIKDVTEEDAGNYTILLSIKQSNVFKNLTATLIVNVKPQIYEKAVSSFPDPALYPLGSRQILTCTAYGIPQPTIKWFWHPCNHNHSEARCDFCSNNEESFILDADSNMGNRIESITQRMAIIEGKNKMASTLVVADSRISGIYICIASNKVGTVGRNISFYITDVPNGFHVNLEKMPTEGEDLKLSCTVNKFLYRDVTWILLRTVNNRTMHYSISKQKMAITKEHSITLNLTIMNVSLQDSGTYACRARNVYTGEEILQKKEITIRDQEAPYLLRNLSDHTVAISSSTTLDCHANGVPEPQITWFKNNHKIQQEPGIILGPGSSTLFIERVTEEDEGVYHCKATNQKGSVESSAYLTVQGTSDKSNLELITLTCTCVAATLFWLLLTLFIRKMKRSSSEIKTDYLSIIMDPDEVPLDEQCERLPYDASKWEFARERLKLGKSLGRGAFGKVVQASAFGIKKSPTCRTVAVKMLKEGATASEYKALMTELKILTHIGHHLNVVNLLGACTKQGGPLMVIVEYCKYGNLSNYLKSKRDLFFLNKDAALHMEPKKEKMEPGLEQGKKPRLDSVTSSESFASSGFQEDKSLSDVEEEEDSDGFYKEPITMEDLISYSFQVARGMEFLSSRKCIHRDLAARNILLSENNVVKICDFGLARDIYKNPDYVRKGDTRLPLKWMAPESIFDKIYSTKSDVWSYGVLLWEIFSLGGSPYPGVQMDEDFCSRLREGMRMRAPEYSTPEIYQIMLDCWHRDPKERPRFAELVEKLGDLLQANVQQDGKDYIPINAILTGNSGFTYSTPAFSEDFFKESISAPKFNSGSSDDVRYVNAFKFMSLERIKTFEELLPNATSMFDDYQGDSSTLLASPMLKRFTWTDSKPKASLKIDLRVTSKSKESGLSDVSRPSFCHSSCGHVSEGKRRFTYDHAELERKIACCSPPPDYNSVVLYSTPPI
Sequence of c-Kit (P10721 26-976): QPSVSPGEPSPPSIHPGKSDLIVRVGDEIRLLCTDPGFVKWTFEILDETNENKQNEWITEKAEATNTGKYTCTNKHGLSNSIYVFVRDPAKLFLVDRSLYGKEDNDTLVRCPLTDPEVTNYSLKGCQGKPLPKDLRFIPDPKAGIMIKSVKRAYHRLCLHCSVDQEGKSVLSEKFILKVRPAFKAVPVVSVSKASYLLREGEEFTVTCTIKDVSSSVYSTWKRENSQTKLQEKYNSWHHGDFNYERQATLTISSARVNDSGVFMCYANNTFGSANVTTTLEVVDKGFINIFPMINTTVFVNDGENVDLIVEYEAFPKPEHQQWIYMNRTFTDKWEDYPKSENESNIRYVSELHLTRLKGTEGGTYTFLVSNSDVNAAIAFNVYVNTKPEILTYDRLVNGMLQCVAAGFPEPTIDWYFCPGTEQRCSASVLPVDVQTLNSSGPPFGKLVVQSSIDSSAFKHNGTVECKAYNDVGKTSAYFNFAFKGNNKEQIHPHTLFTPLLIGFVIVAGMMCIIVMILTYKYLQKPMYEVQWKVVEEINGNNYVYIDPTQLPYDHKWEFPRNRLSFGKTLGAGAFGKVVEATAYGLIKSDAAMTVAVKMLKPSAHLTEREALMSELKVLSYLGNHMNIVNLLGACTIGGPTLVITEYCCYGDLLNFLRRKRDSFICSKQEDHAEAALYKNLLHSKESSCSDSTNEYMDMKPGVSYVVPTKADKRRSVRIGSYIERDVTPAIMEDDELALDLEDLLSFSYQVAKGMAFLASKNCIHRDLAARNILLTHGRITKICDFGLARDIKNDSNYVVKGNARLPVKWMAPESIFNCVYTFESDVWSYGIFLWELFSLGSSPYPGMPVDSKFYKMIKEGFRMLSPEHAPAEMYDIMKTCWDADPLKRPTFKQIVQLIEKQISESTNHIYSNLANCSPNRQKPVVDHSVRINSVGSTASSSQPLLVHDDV
Sequence of ERK7/MAPK15 (Q8TD08 whole entry): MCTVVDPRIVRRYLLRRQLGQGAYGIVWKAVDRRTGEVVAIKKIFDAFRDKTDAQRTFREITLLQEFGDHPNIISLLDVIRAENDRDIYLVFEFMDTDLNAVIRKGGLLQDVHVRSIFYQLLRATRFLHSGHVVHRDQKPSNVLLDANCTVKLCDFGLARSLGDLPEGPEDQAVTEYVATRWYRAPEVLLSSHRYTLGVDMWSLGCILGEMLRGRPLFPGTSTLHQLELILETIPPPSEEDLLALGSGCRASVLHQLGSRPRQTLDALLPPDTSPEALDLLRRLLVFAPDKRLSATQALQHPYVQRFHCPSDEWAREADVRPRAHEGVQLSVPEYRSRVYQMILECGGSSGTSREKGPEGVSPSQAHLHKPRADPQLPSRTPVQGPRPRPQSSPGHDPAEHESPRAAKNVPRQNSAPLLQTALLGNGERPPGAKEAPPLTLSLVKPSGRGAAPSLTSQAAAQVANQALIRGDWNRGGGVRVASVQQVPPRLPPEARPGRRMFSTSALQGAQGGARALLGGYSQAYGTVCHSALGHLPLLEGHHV
Sequence of MAPKAPK2 (P49137 whole entry, species assumed): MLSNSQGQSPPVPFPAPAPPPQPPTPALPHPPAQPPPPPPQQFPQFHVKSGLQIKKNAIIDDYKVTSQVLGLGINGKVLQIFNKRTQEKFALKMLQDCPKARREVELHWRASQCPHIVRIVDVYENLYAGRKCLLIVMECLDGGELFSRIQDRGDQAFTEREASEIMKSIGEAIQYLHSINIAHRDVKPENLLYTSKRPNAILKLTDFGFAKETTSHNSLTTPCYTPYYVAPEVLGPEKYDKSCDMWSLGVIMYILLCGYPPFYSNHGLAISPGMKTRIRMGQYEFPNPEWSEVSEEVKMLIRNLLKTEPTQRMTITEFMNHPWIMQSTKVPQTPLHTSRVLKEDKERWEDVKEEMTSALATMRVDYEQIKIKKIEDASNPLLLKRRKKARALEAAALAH
Sequence of Aurora A (O14965 whole entry): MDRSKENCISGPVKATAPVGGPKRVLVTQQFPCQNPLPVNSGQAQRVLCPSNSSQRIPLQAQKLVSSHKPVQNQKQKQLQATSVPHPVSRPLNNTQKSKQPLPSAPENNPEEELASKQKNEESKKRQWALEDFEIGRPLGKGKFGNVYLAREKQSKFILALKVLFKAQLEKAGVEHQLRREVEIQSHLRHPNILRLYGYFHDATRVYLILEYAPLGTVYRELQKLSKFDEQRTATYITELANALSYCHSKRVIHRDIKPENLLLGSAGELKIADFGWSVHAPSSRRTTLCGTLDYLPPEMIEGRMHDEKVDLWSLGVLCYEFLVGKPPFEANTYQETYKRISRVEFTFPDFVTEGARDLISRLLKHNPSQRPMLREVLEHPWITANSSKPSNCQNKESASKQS

SMILES	% Enzyme Activity (relative to DMSO controls) [1]	Hepatic de novo lipogenesis, Mean (DPM/gram liver tissue/hour) [2, 10]	Hepatic de novo lipogenesis, % change from vehicle control (inhibition) [2, 11]	Hepatic de novo lipogenesis, Mean (DPM/gram liver tissue/hour) [2, 11]	Hepatic de novo lipogenesis, % change from vehicle control (inhibition) [2, 12]	Hepatic de novo lipogenesis, Mean (DPM/gram liver tissue/hour) [2, 12]	% Enzyme Activity (relative to DMSO controls) [3]	% Enzyme Activity (relative to DMSO controls) [4]	% Enzyme Activity (relative to DMSO controls) [5]	% Enzyme Activity (relative to DMSO controls) [6]	% Enzyme Activity (relative to DMSO controls) [7]	% Enzyme Activity (relative to DMSO controls) [8]	Dose proportionality of the increases in mean Cmax and AUC0-24 [9]	Cmax ([9]; 100 mg/kg/day oral gavage)	Tmax ([9]; 100 mg/kg/day oral gavage)	AUC(0-t) ([9]; 100 mg/kg/day oral gavage)	Cmax ([9]; 300 mg/kg/day oral gavage)	Tmax ([9]; 300 mg/kg/day oral gavage)	AUC(0-t) ([9]; 300 mg/kg/day oral gavage)	other results
CC(C)(CCCCc1ccc(CCCCC(C)(C)C(=O)O)cc1)C(=O)O [Compound I-1, 6-[4-(5-carboxy-5-methylhexyl)-phenyl]-2,2-dimethylhexanoic acid]	100.06%	81.25 DPM/gram liver tissue/hour	56% and 55.65%	43.83 DPM/gram liver tissue/hour	69% and 68.96%	30.68 DPM/gram liver tissue/hour	87.88%	83.92%	92.75%	81.06%	57.02%	106.34%	less than dose proportional	415 µg/mL	2 h	5460 µg·h/mL	787 µg/mL	1 h	7520 µg·h/mL	AUC0-24 (h*ng/mL) ([9]; 100 mg/kg/day oral gavage): 5,460,000 h*ng/mL
CC(C)(CCCCc1cccc(CCCCC(C)(C)C(=O)O)c1)C(=O)O [Compound I-32, 6-[3-(5-carboxy-5-methylhexyl)-phenyl]-2,2-dimethylhexanoic acid]	102.21%	50.61 DPM/gram liver tissue/hour	37.42%	61.85 DPM/gram liver tissue/hour	53% and 52.90%	46.55 DPM/gram liver tissue/hour	91.15%	93.33%	90.61%	71.52%	66.13%	103.59%	approximately dose proportional	142 µg/mL	2 h	2030 µg·h/mL	406 µg/mL	4 h	7880 µg·h/mL	Hepatic de novo lipogenesis, % change from vehicle control (inhibition) [2, 10]: 48.79%; AUC0-24 (h*ng/mL) ([9]; 300 mg/kg/day oral gavage): 7,880,000 h*ng/mL
